# Test results taken from patent publication EP0423818B1, “Arylsulfatase” (Bristol-Myers Squibb Company, priority 1989, dated 1991).
# Test system: Es-2 sulfatase
# Assay: Effect of enzyme inhibitors on sulfatase activity (protocol as for ions)
# Format: biochemical, Streptomyces sp. T109-3
# Conditions: 1000 µM
# Protocol: (a) Optimum pH. The enzyme solution (0.6 u in 50 µl of 50 mM Tris-HCl, pH 7.5) was mixed with 100 µl each of the following buffers: 500 mM sodium acetate (pH 4.0-5.5), 500 mM Tris-maleate (pH 5.5-7.7), 500 mM Tris-HCl (pH 7.5-9.0), and 500 mM glycine-NaOH (pH 9.0-10.0). The substrate, p-nitrophenylsulfate, was similarly dissolved in each of the above buffers (1 mg/ml). A sample (150 µl) from the enzyme solution is mixed with the substrate (50 µl) in the same buffer, and the mixture was incubated for 30 minutes at 37°C. The enzyme activity in each buffer was determined spectrophotometrically by UV at 415 nm. […] (b) pH stability. The stock enzyme solution was dialyzed against water to remove salts. The enzyme solution was adjusted to 0.6 u/10 µl with Tris-HCl buffer (pH 7.5). This solution (10 µl) was mixed with 40 µl each of the buffer listed in (a) and incubated for 30 minutes at 30°C. The enzyme sample (50 µl) was mixed with 100 µl of 500 mM Tris-HCl (pH 9.0) and 50 µl of substrate in water (1mg/ml), and the mixture was incubated at 37°C for 30 minutes to determine the residual enzyme activity. […] (c) Optimum temperature. Enzyme (0.6 u) in 150 µl of 50 mM Tris-HCl (pH 9.0) were incubated with p-nitrophenylsulfate (1 mg/ml, 50 µl) in the same buffer (pH 9.0) for 30 minutes at various temperatures (200 µl each). […] (d) Temperature stability. Enzyme preparations (0.6 u) in 50 mM Tris-HCl (150 µl, pH 9.0) were incubated for 15 minutes at various temperatures and then cooled in an ice bath. p-Nitrophenylsulfate (1 mg/ml, 50 µl) was added to the enzyme solution, and the mixture was incubated for 30 minutes at 37°C. […] (e) Effect of ions. Enzyme (0.6 u), p-nitrophenyl sulfate 4 mM, and ion 1 mM were dissolved in 200 µl of Tris-HCl (50 mM). The solution was incubated for 30 minutes at 37°C. p-Nitrophenol released was spectrophotometrically assayed by UV at 415 nm.
# (f) Effect of enzyme inhibitors. The protocol used in (e) was followed with the exception that 1 mM of an enzyme inhibitor was used instead of a metal ion.
row,Compound,% Inhibit. [%]
1,O=C(O)CN(CCN(CC(=O)O)CC(=O)O)CC(=O)O [EDTA],69
2,O=C(O)CI [Iodoacetic acid],96

# Same assay, conditions: 1 mM of an enzyme inhibitor; p-nitrophenyl sulfate 4 mM; 30 minutes at 37°C
row,Compound,% Inhibit. [%]
1,O[C@H](CS)[C@H](O)CS (racemic) [Dithiothreitol],34
2,"c1cnc2c(c1)ccc1cccnc12 [1,10-Phenanthroline]",60
3,OCCS [2-Mercaptoethanol],22
4,O=C(O)CC(O)(CC(=O)O)C(=O)O [Citrate],87
5,N[C@@H](CS)C(=O)O [Cysteine],18
6,c1c[nH]cn1 [Imidazole],14
7,CCN1C(=O)C=CC1=O [N-Ethylmaleimide],35
8,O=S(=O)(F)Cc1ccccc1 [Phenylmethanesulfonyl fluoride],81
9,O=C(O)c1cc[c]([Hg][Cl])cc1 [p-Chloromercuribenzoic acid],78

# Test system: Es-2 sulfatase
# Assay: Effect of metal ions on sulfatase activity (p-nitrophenyl sulfate hydrolysis, UV at 415 nm)
# Format: biochemical, Streptomyces sp. T109-3
# Conditions: ion 1 mM; enzyme 0.6 u; p-nitrophenyl sulfate 4 mM; Tris-HCl 50 mM; 30 minutes at 37°C
# Protocol: Sulfatase activity during purification is monitored by determining the conversion of p-nitrophenylsulfate into p-nitrophenol using spectrophotometric means. Specifically, the following assay method is used. 50 µl of a p-nitrophenylsulfate solution (1 mg/ml in 50 mM Tris-HCl, pH7.5), 50 µl of a sample, and 100 µl of 50 mM Tris-HCl, pH 7.5, are mixed and incubated for 30 minutes at 37°C. If the activity is weak, the incubation time is prolonged up to 18 hours. The liberated p-nitrophenol is determined spectrophotometrically at 415 nm. From standard curves of p-nitrophenol and protein concentrations, the unit or specific activity per mg of the enzyme is calculated. The protein concentration is determined by measuring the absorption at 280 nm throughout purification and, in case of homogeneous protein, by the Bradford method [Bradford, M., et al., Anal. Biochem., 1976, 72:248-254] using bovine serum albumin as the standard protein. A unit of sulfatase activity is defined as the amount of enzyme which can hydrolyze one nanomole of p-nitrophenyl sulfate to p-nitrophenol in one minute at 37°C at pH 7.5.
# (§1) (a) Optimum pH. The enzyme solution (0.6 u in 50 µl of 50 mM Tris-HCl, pH 7.5) was mixed with 100 µl each of the following buffers: 500 mM sodium acetate (pH 4.0-5.5), 500 mM Tris-maleate (pH 5.5-7.7), 500 mM Tris-HCl (pH 7.5-9.0), and 500 mM glycine-NaOH (pH 9.0-10.0). The substrate, p-nitrophenylsulfate, was similarly dissolved in each of the above buffers (1 mg/ml). A sample (150 µl) from the enzyme solution is mixed with the substrate (50 µl) in the same buffer, and the mixture was incubated for 30 minutes at 37°C. The enzyme activity in each buffer was determined spectrophotometrically by UV at 415 nm. The optimal pH of the enzyme was thus determined to be about 9.0 (Fig. 1A). (b) pH stability. The stock enzyme solution was dialyzed against water to remove salts. The enzyme solution was adjusted to 0.6 u/10 µl with Tris-HCl buffer (pH 7.5). This solution (10 µl) was mixed with 40 µl each of the buffer listed in (a) and incubated for 30 minutes at 30°C. The enzyme sample (50 µl) was mixed with 100 µl of 500 mM Tris-HCl (pH 9.0) and 50 µl of substrate in water (1mg/ml), and the mixture was incubated at 37°C for 30 minutes to determine the residual enzyme activity. […] (c) Optimum temperature. Enzyme (0.6 u) in 150 µl of 50 mM Tris-HCl (pH 9.0) were incubated with p-nitrophenylsulfate (1 mg/ml, 50 µl) in the same buffer (pH 9.0) for 30 minutes at various temperatures (200 µl each). […] (d) Temperature stability. Enzyme preparations (0.6 u) in 50 mM Tris-HCl (150 µl, pH 9.0) were incubated for 15 minutes at various temperatures and then cooled in an ice bath. p-Nitrophenylsulfate (1 mg/ml, 50 µl) was added to the enzyme solution, and the mixture was incubated for 30 minutes at 37°C. The enzyme was stable below 30°C at pH 9.0 (Fig. 2B). (e) Effect of ions. Enzyme (0.6 u), p-nitrophenyl sulfate 4 mM, and ion 1 mM were dissolved in 200 µl of Tris-HCl (50 mM). The solution was incubated for 30 minutes at 37°C. p-Nitrophenol released was spectrophotometrically assayed by UV at 415 nm. […]
Compound,Inhibit. (%),Rel. Activity (%)
[Cl][Hg][Cl] [HgCl2],100,0
AlCl3,33,67
BaCl2,17,83
CaCl2,,213
CoCl2,66,34
CuCl2,44,56
FeCl2,88,12
FeCl3,49,51
MnCl2,66,34
NiCl2,41,59
ZnCl2,82,18

# Test system: not given
# Assay: not given
# Conditions: background statement; compound disclosed in Japanese Kokai 88/192,793; cited from earlier work
row,Compound,cytotoxicity relative to etoposide
1,"COc1cc([C@@H]2c3cc4c(cc3[C@@H](O[C@@H]3O[C@@H]5CO[C@@H](C)O[C@H]5[C@H](O)[C@H]3O)[C@H]3COC(=O)[C@H]23)OCO4)cc(OC)c1OS(=O)(=O)O [(III), etoposide 4'-sulfate]",much less cytotoxic than etoposide itself

# Test system: Es-2 sulfatase
# Assay: Effect of salts on sulfatase activity (protocol as for ions)
# Format: biochemical, Streptomyces sp. T109-3
# Conditions: 5 mM of a salt
# Protocol: as §1
# (g) Effect of salts. The protocol used in (e) was followed, except that 5 mM of a salt was used instead of 1 mM of a metal ion. […]
row,Compound,inhibition of sulfatase activity (in words)
1,K2HPO4,strongly inhibited

# Same assay, conditions: 5 mM of a salt; p-nitrophenyl sulfate 4 mM; 30 minutes at 37°C
row,Compound,% Inhibit. [%]
1,(NH4)2SO4,44
2,K2HPO4,100
3,K2SO4,36
4,NaCl,58

# Test system: sulfatase of the invention
# Assay: Substrate specificity: etoposide derivatives incubated with the enzyme, TLC analysis
# Format: biochemical, Streptomyces sp. T109-3
# Conditions: substrate 50 µl, 1 mg/ml; enzyme 0.6 u; 37°C for 30 minutes; silica gel TLC
# Protocol: (h) Substrate specificity. Four etoposide derivatives were tested as substrate for the sulfatase of the invention. The substrates are: etoposide 4'-sulfate (III), 2",3"-di-O-acetyl-etoposide-4'-sulfate (IV), etoposide 2"-sulfate (V), and etoposide 3"-sulfate (VI). The substrate (50 µl, 1 mg/ml, MeOH:H2O = 1:1, pH 9.0) and the enzyme (50 µl, 0.6 u, 50 mM Tris-HCl, pH 7.5) were mixed and incubated at 37°C for 30 minutes. The mixture was then analyzed on a silica gel TLC plate using a solvent system consisting of chloroform-methanol (10:1 v/v).
row,Compound,substrate for the enzyme
1,"COc1cc([C@@H]2c3cc4c(cc3[C@@H](O[C@@H]3O[C@@H]5CO[C@@H](C)O[C@H]5[C@H](O)[C@H]3O)[C@H]3COC(=O)[C@H]23)OCO4)cc(OC)c1OS(=O)(=O)O [(III), etoposide 4'-sulfate]",are not
2,"COc1cc([C@@H]2c3cc4c(cc3[C@@H](O[C@@H]3O[C@@H]5CO[C@@H](C)O[C@H]5[C@H](OC(C)=O)[C@H]3OC(C)=O)[C@H]3COC(=O)[C@H]23)OCO4)cc(OC)c1OS(=O)(=O)O [(IV), 2"",3""-di-O-acetyl-etoposide-4'-sulfate]",are not

# Test system: Es-2 sulfatase
# Assay: EDTA treatment of the enzyme and recovery of activity by Ca2+
# Format: biochemical, Streptomyces sp. T109-3
# Conditions: 10 mM of EDTA followed by dialysis against water
# Protocol: (a) Optimum pH. The enzyme solution (0.6 u in 50 µl of 50 mM Tris-HCl, pH 7.5) was mixed with 100 µl each of the following buffers: 500 mM sodium acetate (pH 4.0-5.5), 500 mM Tris-maleate (pH 5.5-7.7), 500 mM Tris-HCl (pH 7.5-9.0), and 500 mM glycine-NaOH (pH 9.0-10.0). The substrate, p-nitrophenylsulfate, was similarly dissolved in each of the above buffers (1 mg/ml). A sample (150 µl) from the enzyme solution is mixed with the substrate (50 µl) in the same buffer, and the mixture was incubated for 30 minutes at 37°C. The enzyme activity in each buffer was determined spectrophotometrically by UV at 415 nm. The optimal pH of the enzyme was thus determined to be about 9.0 (Fig. 1A). (b) pH stability. The stock enzyme solution was dialyzed against water to remove salts. The enzyme solution was adjusted to 0.6 u/10 µl with Tris-HCl buffer (pH 7.5). This solution (10 µl) was mixed with 40 µl each of the buffer listed in (a) and incubated for 30 minutes at 30°C. The enzyme sample (50 µl) was mixed with 100 µl of 500 mM Tris-HCl (pH 9.0) and 50 µl of substrate in water (1mg/ml), and the mixture was incubated at 37°C for 30 minutes to determine the residual enzyme activity. […] (c) Optimum temperature. Enzyme (0.6 u) in 150 µl of 50 mM Tris-HCl (pH 9.0) were incubated with p-nitrophenylsulfate (1 mg/ml, 50 µl) in the same buffer (pH 9.0) for 30 minutes at various temperatures (200 µl each). […]
row,Compound,sulfatase activity after treatment of the enzyme with EDTA
1,O=C(O)CN(CCN(CC(=O)O)CC(=O)O)CC(=O)O [EDTA],the sulfatase activity disappeared
